Test results reported in patent US20030113784A1, “Regulated expression of recombinant DNA” (priority 2001, published 2003).

Tested on: β-galactosidase expression in C2C12 myoblasts cotransfected with Op8iME and Lac-R
Assay: Time course of IPTG induction of β-galactosidase expression (chemiluminescent assay of cell lysates)
Assay type: cell-based
Conditions: 5 mM IPTG added sixteen hours post-transfection
Method: The time course of IPTG induction of β-galactosidase expression in one of the muscle enhancer and SV40 intron containing constructs was determined. The kinetics of Op8iME induction in C2C12 myoblasts were plotted over the course of 48 hours. Op8iME and the Lac-R were transiently cotransfected into C2C12 myoblasts. Sixteen hours post-transfection, 5 mM IPTG was added. β-galactosidase expression was monitored in cell lysates by chemiluminescent assay (Promega) at a selection of time-points from 1 h to 48 h. IPTG-dependent induction of β-galactosidase began at 4h and increased over time, with a maximum peak at 24 h (FIG. 11).

For `CC(C)S[C@@H]1O[C@H](CO)[C@H](O)[C@H](O)[C@H]1O` [IPTG, isopropylthiogalactoside], the “time of maximum peak of IPTG-dependent induction of β-galactosidase” value was 24 h and the “start of IPTG-dependent induction of β-galactosidase” value (time-points 1 h to 48 h) was 4 h.
